Laboratory results: ChEMBL document CHEMBL1201862, “PubChem BioAssay data set” (2004)
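Dose response: 5 concentrations. Exposure: 48 h. Format: 96-well plates. Endpoint: linear interpolation; highest concentration if not reached. Abbreviation: GI50, concentration required for 50% inhibition of growth.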 Calls of active or inactive are those of the source. Rule as the data show it: active = GI50 up to about 1.1 µM and inactive = higher.

What was measured:
Experiment in all cases: NCI tumour cell line growth inhibition, 48 h
A549 = test system: A549
ACHN = test system: ACHN
COLO 205 = test system: COLO 205
DU-145 = test system: DU-145
HCC 2998 = test system: HCC 2998
HCT-116 = test system: HCT-116
HT-29 = test system: HT-29
IGROV-1 = test system: IGROV-1
KM12 = test system: KM12
M14 = test system: M14
MCF7 = test system: MCF7
NCI-H522 = test system: NCI-H522
OVCAR-5 = test system: OVCAR-5
SK-MEL-5 = test system: SK-MEL-5
SNB-19 = test system: SNB-19
SNB-75 = test system: SNB-75
SR = test system: SR
UACC-257 = test system: UACC-257
UACC-62 = test system: UACC-62

Measured: GI50

O=C(CNc1ccccc1Cl)Nn1c(-c2ccccc2)nc2ccccc2c1=O
inactive: A549 44.8 µM | ACHN 37.4 µM | COLO 205 17.9 µM | DU-145 > 100 µM | HCC 2998 19.5 µM | HCT-116 25.2 µM | HT-29 > 10 µM | IGROV-1 23.7 µM | KM12 28.6 µM | M14 > 10 µM | MCF7 14.8 µM | NCI-H522 > 10 µM | OVCAR-5 > 10 µM | SK-MEL-5 10.2 µM | SNB-19 > 10 µM | SNB-75 16.8 µM | SR 23.4 µM | UACC-257 50.6 µM | UACC-62 > 10 µM

CCCCCCCCCCCCCCCCOCC(COP(=O)(O)OCC1OC(n2cc(CC)c(=O)[nH]c2=O)CC1O)OC(=O)CCCCCCCCCCCCCCC (stereo not given)
inactive: A549 > 100 µM | ACHN > 100 µM | COLO 205 > 100 µM | DU-145 > 100 µM | HCC 2998 > 100 µM | HCT-116 > 100 µM | HT-29 > 100 µM | IGROV-1 > 100 µM | KM12 > 100 µM | M14 > 100 µM | MCF7 > 100 µM | NCI-H522 > 100 µM | OVCAR-5 > 100 µM | SNB-19 > 100 µM | SNB-75 > 100 µM | SR > 100 µM | UACC-257 > 100 µM | UACC-62 > 100 µM

C/C(=N\N(C)C)c1sc(-n2nc(-c3ccccc3)cc2-c2ccccc2)nc1C
inactive: A549 > 100 µM | ACHN > 100 µM | COLO 205 > 100 µM | HCC 2998 > 100 µM | HCT-116 > 100 µM | HT-29 > 100 µM | IGROV-1 > 100 µM | KM12 > 100 µM | M14 > 100 µM | NCI-H522 > 100 µM | OVCAR-5 21 µM | SK-MEL-5 > 100 µM | SNB-19 > 100 µM | SNB-75 15.2 µM | SR > 100 µM | UACC-257 > 100 µM | UACC-62 > 100 µM

O=C1CCC(=O)c2cc(Br)ccc2N1
inactive: A549 98.6 µM | ACHN > 100 µM | COLO 205 > 100 µM | HCC 2998 > 100 µM | HCT-116 > 40.8 µM | HT-29 > 100 µM | IGROV-1 > 100 µM | KM12 > 100 µM | M14 > 100 µM | NCI-H522 > 100 µM | OVCAR-5 > 100 µM | SK-MEL-5 > 100 µM | SNB-19 > 100 µM | SNB-75 > 100 µM | SR 26.4 µM | UACC-257 > 100 µM | UACC-62 > 100 µM

CC1CCC2c3c([nH]c4ccccc34)C3C(=O)N(c4ccccc4)C(=O)C3C2C1 (stereo not given)
inactive: A549 90.8 µM | ACHN 21.8 µM | COLO 205 > 100 µM | HCC 2998 106 µM | HCT-116 80.2 µM | HT-29 > 250 µM | IGROV-1 19.7 µM | KM12 > 250 µM | M14 46.1 µM | NCI-H522 142 µM | OVCAR-5 > 100 µM | SK-MEL-5 > 100 µM | SNB-19 32.6 µM | SNB-75 2.65 µM | SR 65 µM | UACC-257 > 250 µM | UACC-62 30.1 µM

NNC(=O)CCC(=O)Nc1ccc(Cl)cc1Cl
inactive: A549 > 100 µM | ACHN > 100 µM | COLO 205 > 100 µM | HCC 2998 > 100 µM | HCT-116 > 100 µM | HT-29 > 100 µM | IGROV-1 > 100 µM | KM12 > 100 µM | M14 45.1 µM | NCI-H522 > 100 µM | OVCAR-5 > 100 µM | SK-MEL-5 > 100 µM | SNB-19 > 100 µM | SNB-75 > 100 µM | SR 6.68 µM | UACC-257 > 100 µM | UACC-62 28.8 µM
